Format in all cases: cell-based
Holding throughout (conditions): inoculum about 10^4 CFU/ml, 18-24 h at 37° C.

The subject of assay [1] is Proteus vulgaris ATCC 881. In words: MIC, standard dilution test, Proteus vulgaris ATCC 881. The procedure:
(§1) ISOSENSITEST broth (Oxoid) and TOLLD-HEWITT broth (Difco) are used for growing staphylococci and streptococci, respectively. Broth cultures are diluted so that the final inoculum is about 10^4 colony forming units/ml (CFU/ml).

Assay [2] has as its system Staph. epidermidis ATCC 12228. In words: MIC, standard dilution test, Staph. epidermidis ATCC 12228. The protocol:
as §1

Another assay deals with Staph. aureus Tour L 165. Kind of assay: MIC, standard dilution test, Staph. aureus Tour L 165. The protocol:
as §1

The test system of assay [3] is Neisseria gonorrhoeae ISM68/126. Kind of assay: MIC, standard dilution test, Neisseria gonorrhoeae ISM68/126. The protocol: as §1
The subject of assay [4] is Haemophilus influenzae ATCC 19418. Kind of assay: MIC, standard dilution test, Haemophilus influenzae ATCC 19418. The procedure: as §1
The test system of assay [5] is Strep. faecalis ATCC 7080. Kind of assay: MIC, standard dilution test, Strep. faecalis ATCC 7080. The procedure:
as §1

Assay [6] relates to Pseudomonas aeruginosa ATCC 10145. In words: MIC, standard dilution test, Pseudomonas aeruginosa ATCC 10145. The procedure: as §1
In assay [7] the test system is Staph. haemolyticus L 602. Kind of assay: MIC, standard dilution test, Staph. haemolyticus L 602. The procedure:
as §1

The subject of assay [8] is Escherichia coli SKF 12140. In words: MIC, standard dilution test, Escherichia coli SKF 12140. The procedure:
as §1

The subject of the next assay is Strep. mitis L 796. In words: MIC, standard dilution test, Strep. mitis L 796. The protocol: as §1
The next assay relates to Strep. pyogenes C 203. In words: MIC, standard dilution test, Strep. pyogenes C 203. The procedure:
as §1

A further assay relates to Strep. pneumoniae UC41. In words: MIC, standard dilution test, Strep. pneumoniae UC41. The protocol:
as §1

Some results are limits rather than exact numbers.

In the case of `NC1C(=O)NC2Cc3ccc(c(Cl)c3)Oc3cc4cc(c3OC3CCOC3=O)Oc3ccc(cc3Cl)C(O)C3NC(=O)C(NC(=O)C4NC(=O)C(NC2=O)c2cc(O)cc(c2)Oc2cc1ccc2O)c1ccc(O)c(c1)-c1c(O)cc(O)cc1C(C(=O)OC1CCOC1=O)NC3=O` (stereo not drawn) [Compound 23, O^56-(tetrahydro-2-oxo-3-furanyl)deglucoteicoplanin (tetrahydro-2-oxo-3-furanyl) ester], the “Minimal inhibitory concentration (MIC)” value is greater than 128 in [1]; 0.25 in [2]; 0.5 in the assay with Staph. aureus Tour L 165; greater than 128 in [3]; greater than 128 in assay [4]; 1 in assay [5]. Further, the “Minimal inhibitory concentration (MIC)” value is reported as greater than 128 in [6]; 8 in [7]; greater than 128 in assay [8]; 2 in the assay with Strep. mitis L 796; 2 in the assay on Strep. pyogenes C 203; 0.5 in the assay with Strep. pneumoniae UC41.
As to `NCCNC(=O)C(CCO)OC(=O)C1NC(=O)C2NC(=O)C(NC(=O)C3NC(=O)C4NC(=O)C(Cc5ccc(c(Cl)c5)Oc5cc3cc(c5OC(CCO)C(=O)NCCN)Oc3ccc(cc3Cl)C2O)NC(=O)C(N)c2ccc(O)c(c2)Oc2cc(O)cc4c2)c2ccc(O)c(c2)-c2c(O)cc(O)cc21` (stereo not drawn) [Compound 24], the “Minimal inhibitory concentration (MIC)” value in assay [1] is on record as 128; in [2], 0.125; in the assay on Staph. aureus Tour L 165, 0.25; in assay [3], 128; in [4], greater than 128; in assay [5], 0.5. The “Minimal inhibitory concentration (MIC)” value in assay [6] is recorded as greater than 128; in assay [7], 0.25; in assay [8], 32; in the assay with Strep. mitis L 796, 0.125; with Strep. pyogenes C 203 it was 0.125; in the assay on Strep. pneumoniae UC41 it was 0.25.
As to “O-(2-(3-(4-(3-amino-propyl)amino)butyl)amino)propyl)amino)-1-hydroxy-2-oxoethyl)teicoplanin aglycone 1-(3-(4-(3-aminopropyl) amino)butyl)amino)propyl)amino)carbonyl)-3-hydroxy-propyl ester [Compound 25]”, the “Minimal inhibitory concentration (MIC)” value in [1] was 64; in assay [2], 0.125; in the assay with Staph. aureus Tour L 165, 0.25; in [3], greater than 128; in [4], greater than 128; in [5], 1. In addition, the “Minimal inhibitory concentration (MIC)” value in assay [6] is on record as greater than 128; in [7] it was 0.25; in assay [8], 32; in the assay on Strep. mitis L 796, 0.125; with Strep. pyogenes C 203, 0.125; in the assay on Strep. pneumoniae UC41, 0.125.
As to “O^56 -(2-bromoethyl)deglucoteicoplanin phenylmethyl ester [Compound 19]”, the “Minimal inhibitory concentration (MIC)” value in assay [1] is on record as greater than 128; in assay [2], 0.5; with Staph. aureus Tour L 165, 1; in assay [3], greater than 128; in [4], greater than 128; in assay [5] it was 4. For the same compound, the “Minimal inhibitory concentration (MIC)” value is reported as greater than 128 in assay [6]; 4 in [7]; greater than 128 in assay [8]; 0.25 in the assay with Strep. mitis L 796; 0.25 with Strep. pyogenes C 203; 0.5 in the assay with Strep. pneumoniae UC41.

The values above are taken from patent publication US5185320A, “O^56 -alkyl derivatives of aglycone and pseudo aglycones of teicoplanin” (Gruppo Lepetit S.p.A., priority 1989, dated 1993).
